# From US20110144125A1, “Anti-Arrhythmia Agents, Methods of Their Use, Methods of Their Identification and Kits Therefore” (THE UAB RESEARCH FOUNDATION, priority 2008, published 2011)
# Values joined by “and” are separate entries in the source; they are usually repeats but may differ in a detail not shown here. Identical values can stand only once. Like-named read-outs stand apart in the source and are kept apart here.
# System: rat left atrial appendage
# Experiment: 2-APB-induced spontaneous mechanical activity (SMA/SMEs) in isolated superfused rat left atria / left atrial appendage
# [1] = no 2-APB, 30 nM isoproterenol, 3 μM forskolin, 300 nM BayK 8644 or FPL-64176, 120 μM ouabain, 600 nM ryanodine
compound,measurement,setting,value
"COC(=O)c1c(C)[nH]c(C)c1C(=O)c1ccccc1Cc1ccccc1 [FPL-64176, 2,5-Dimethyl-4-[2-(phenylmethyl)benzoyl]-111-pyrrole-3-carboxylic acid methyl ester]",ectopic activity (SMEs/SMA/STA) with agent alone,,SMA or SMEs do not occur
"NCCOB(c1ccccc1)c1ccccc1 [2-APB, 2-aminoethoxydiphenyl borate]",2-APB concentration giving intermittent increases in left atrial mechanical force independent of pacing (SMEs),,> 7.5 µM
same,2-APB concentration producing sporadic mechanical events in the absence of pacing stimulus,,> 10 M
same,SMEs during rest,,numerous SMEs during rest
same,SMEs giving way to SMA,,Repeated SMEs
same,SMEs in slowly paced preparations,,only few SMEs
same,rate of SMA,,47±6 contractions/min and ~50 contractions/min
"COC(=O)C1=C(C)NC(C)=C([N+](=O)[O-])[C@H]1c1ccccc1C(F)(F)F [BayK 8644, (45)-1,4-Dihydro-2,6-dimethyl-5-nitro-4-[2-(trifluormethyl)phenyl]-3-pyridinecarboxylic acid methyl ester]",ectopic activity (SMEs/SMA/STA) with agent alone,,SMA or SMEs do not occur
ryanodine,ectopic activity (SMEs/SMA/STA) with agent alone,,"SMEs, SMA or STA does not occur"
C[C@@H]1O[C@@H](O[C@H]2C[C@@H](O)[C@]3(CO)[C@H]4[C@H](O)C[C@]5(C)[C@@H](C6=CC(=O)OC6)CC[C@]5(O)[C@@H]4CC[C@]3(O)C2)[C@H](O)[C@H](O)[C@H]1O [ouabain],ectopic activity (SMEs/SMA/STA) with agent alone,[1],does not affect their mechanical stability
CC(C)NCC(O)c1ccc(O)c(O)c1 (centres unmarked) [isoproterenol],ectopic activity (SMEs/SMA/STA) with agent alone,[1],quiescent in the absence of pacing
